Measurements published in ChEMBL document CHEMBL3991601, “The target landscape of clinical kinase drugs” (Science, 2017).
Active and inactive are the calls of the source. Cut-off read from the data, not from the text of the source, for most assays here: actives have a measured Kd and inactives only a lower limit.

target: Fibroblast growth factor receptor 1 (Homo sapiens, UniProt P11362)
Note: in the data inactive means no Kd found up to 30 µM.

Fibroblast growth factor receptor 1, sequence (P11362 whole entry): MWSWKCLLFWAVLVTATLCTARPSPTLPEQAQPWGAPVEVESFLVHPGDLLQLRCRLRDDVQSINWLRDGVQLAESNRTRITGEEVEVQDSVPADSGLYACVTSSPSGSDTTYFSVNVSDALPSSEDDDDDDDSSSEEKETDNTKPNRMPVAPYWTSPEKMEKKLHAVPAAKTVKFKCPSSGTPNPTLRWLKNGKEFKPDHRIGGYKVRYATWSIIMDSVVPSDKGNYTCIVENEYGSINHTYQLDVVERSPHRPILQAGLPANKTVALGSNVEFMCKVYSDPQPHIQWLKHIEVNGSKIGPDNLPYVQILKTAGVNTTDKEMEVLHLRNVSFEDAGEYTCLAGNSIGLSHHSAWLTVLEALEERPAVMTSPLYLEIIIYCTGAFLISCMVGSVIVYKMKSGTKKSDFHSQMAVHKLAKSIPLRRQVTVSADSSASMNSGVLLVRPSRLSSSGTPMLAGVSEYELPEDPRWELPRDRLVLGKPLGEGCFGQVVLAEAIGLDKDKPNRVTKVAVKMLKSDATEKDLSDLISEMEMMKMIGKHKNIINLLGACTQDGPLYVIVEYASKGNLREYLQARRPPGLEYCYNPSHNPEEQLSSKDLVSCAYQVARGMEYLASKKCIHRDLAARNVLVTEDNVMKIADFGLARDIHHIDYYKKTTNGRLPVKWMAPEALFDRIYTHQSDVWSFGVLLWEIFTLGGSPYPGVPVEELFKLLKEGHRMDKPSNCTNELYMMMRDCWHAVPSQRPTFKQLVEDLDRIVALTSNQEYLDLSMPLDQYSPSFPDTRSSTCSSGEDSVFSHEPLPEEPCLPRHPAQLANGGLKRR

Row | SMILES | Kd
1 | C[C@@H]1CN(Cc2ccc(F)cc2)[C@@H](C)CN1C(=O)c1cc2c(C(=O)C(=O)N(C)C)cn(C)c2cc1Cl [TALMAPIMOD] | > 30 µM (inactive)
2 | CN1CCC(COc2cnc(-c3cccc(Cn4nc(-c5cccc(C#N)c5)ccc4=O)c3)nc2)CC1 [TEPOTINIB] | > 30 µM (inactive)
3 | O=c1sn(-c2cccc3ccccc23)c(=O)n1Cc1ccccc1 [TIDEGLUSIB] | > 30 µM (inactive)
4 | CC(=O)Nc1cccc(-n2c(=O)n(C3CC3)c(=O)c3c(Nc4ccc(I)cc4F)n(C)c(=O)c(C)c32)c1 [TRAMETINIB] | > 30 µM (inactive)

target: DNA topoisomerase 2-beta (Homo sapiens, UniProt Q02880)
Sequence (Q02880 whole entry): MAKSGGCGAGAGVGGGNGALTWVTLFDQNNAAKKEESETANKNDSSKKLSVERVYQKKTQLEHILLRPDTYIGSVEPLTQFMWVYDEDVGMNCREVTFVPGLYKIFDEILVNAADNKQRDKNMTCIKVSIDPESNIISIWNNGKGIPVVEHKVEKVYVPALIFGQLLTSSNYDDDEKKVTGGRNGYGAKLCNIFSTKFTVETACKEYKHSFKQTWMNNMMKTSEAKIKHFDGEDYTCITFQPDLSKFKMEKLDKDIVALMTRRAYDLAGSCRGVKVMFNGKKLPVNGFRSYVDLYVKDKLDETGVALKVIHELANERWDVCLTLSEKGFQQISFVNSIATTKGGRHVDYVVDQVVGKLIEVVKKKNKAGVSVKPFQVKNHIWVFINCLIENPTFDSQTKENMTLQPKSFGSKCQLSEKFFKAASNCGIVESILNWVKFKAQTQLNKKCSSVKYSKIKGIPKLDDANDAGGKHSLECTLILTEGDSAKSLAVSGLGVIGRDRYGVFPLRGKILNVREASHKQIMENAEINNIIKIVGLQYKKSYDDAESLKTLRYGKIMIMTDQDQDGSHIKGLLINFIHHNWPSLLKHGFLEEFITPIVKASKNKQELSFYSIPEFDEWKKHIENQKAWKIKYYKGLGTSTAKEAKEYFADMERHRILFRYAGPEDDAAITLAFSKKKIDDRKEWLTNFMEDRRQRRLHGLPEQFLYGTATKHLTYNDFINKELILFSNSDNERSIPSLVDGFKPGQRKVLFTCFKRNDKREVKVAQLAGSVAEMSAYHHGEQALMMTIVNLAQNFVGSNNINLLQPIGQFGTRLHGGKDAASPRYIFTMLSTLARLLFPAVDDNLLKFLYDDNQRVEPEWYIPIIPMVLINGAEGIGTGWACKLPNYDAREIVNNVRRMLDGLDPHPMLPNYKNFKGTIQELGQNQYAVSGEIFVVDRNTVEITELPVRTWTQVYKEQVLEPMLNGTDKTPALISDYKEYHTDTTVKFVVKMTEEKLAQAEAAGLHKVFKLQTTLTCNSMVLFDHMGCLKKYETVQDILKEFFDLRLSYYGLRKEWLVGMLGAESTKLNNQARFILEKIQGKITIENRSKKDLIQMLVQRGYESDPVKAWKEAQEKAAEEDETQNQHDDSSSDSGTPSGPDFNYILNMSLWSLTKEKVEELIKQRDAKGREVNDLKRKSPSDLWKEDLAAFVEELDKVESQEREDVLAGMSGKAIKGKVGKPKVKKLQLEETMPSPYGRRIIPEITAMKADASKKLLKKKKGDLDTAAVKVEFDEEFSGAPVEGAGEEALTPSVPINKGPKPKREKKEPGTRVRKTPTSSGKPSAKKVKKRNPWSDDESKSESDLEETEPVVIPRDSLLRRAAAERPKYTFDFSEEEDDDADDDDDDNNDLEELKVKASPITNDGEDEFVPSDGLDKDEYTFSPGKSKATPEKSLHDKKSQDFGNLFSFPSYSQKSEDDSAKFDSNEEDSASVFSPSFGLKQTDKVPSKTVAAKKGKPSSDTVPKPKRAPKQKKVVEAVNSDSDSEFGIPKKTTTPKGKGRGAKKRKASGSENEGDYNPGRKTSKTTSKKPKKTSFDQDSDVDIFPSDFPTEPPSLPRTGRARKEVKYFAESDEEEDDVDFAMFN

Row | SMILES | Kd
5 | C[C@@H]1CN(Cc2ccc(F)cc2)[C@@H](C)CN1C(=O)c1cc2c(C(=O)C(=O)N(C)C)cn(C)c2cc1Cl [TALMAPIMOD] | > 30 µM (inactive)
6 | CN1CCC(COc2cnc(-c3cccc(Cn4nc(-c5cccc(C#N)c5)ccc4=O)c3)nc2)CC1 [TEPOTINIB] | > 30 µM (inactive)
7 | O=c1sn(-c2cccc3ccccc23)c(=O)n1Cc1ccccc1 [TIDEGLUSIB] | > 30 µM (inactive)
8 | CC(=O)Nc1cccc(-n2c(=O)n(C3CC3)c(=O)c3c(Nc4ccc(I)cc4F)n(C)c(=O)c(C)c32)c1 [TRAMETINIB] | > 30 µM (inactive)

target: T1, NUAK family SNF1-like kinase 2 (Homo sapiens, UniProt Q9H093)
T1 sequence (Q9H093 whole entry): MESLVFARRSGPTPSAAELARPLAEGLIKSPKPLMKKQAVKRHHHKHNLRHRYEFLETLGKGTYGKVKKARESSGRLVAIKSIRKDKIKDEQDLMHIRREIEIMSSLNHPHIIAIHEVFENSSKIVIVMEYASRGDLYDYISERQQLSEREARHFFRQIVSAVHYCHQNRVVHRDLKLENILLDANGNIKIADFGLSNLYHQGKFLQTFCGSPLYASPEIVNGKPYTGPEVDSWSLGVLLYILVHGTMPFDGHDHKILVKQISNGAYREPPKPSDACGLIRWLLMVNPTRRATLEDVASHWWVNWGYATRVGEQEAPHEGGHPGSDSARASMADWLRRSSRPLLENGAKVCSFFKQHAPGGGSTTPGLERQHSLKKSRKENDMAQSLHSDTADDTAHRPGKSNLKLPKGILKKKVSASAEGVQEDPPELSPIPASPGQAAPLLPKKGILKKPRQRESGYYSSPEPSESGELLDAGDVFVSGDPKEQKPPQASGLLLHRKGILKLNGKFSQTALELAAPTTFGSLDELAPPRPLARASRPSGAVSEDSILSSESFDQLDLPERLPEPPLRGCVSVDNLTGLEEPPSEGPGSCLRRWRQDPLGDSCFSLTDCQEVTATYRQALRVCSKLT

Row | SMILES | Kd
9 | C[C@@H]1CN(Cc2ccc(F)cc2)[C@@H](C)CN1C(=O)c1cc2c(C(=O)C(=O)N(C)C)cn(C)c2cc1Cl [TALMAPIMOD] | > 30 µM (inactive)
10 | CN1CCC(COc2cnc(-c3cccc(Cn4nc(-c5cccc(C#N)c5)ccc4=O)c3)nc2)CC1 [TEPOTINIB] | > 30 µM (inactive)
11 | O=c1sn(-c2cccc3ccccc23)c(=O)n1Cc1ccccc1 [TIDEGLUSIB] | > 30 µM (inactive)
12 | CC(=O)Nc1cccc(-n2c(=O)n(C3CC3)c(=O)c3c(Nc4ccc(I)cc4F)n(C)c(=O)c(C)c32)c1 [TRAMETINIB] | > 30 µM (inactive)

target: Mitogen-activated protein kinase kinase kinase kinase 4 (Homo sapiens, UniProt O95819)
Sequence (O95819 whole entry): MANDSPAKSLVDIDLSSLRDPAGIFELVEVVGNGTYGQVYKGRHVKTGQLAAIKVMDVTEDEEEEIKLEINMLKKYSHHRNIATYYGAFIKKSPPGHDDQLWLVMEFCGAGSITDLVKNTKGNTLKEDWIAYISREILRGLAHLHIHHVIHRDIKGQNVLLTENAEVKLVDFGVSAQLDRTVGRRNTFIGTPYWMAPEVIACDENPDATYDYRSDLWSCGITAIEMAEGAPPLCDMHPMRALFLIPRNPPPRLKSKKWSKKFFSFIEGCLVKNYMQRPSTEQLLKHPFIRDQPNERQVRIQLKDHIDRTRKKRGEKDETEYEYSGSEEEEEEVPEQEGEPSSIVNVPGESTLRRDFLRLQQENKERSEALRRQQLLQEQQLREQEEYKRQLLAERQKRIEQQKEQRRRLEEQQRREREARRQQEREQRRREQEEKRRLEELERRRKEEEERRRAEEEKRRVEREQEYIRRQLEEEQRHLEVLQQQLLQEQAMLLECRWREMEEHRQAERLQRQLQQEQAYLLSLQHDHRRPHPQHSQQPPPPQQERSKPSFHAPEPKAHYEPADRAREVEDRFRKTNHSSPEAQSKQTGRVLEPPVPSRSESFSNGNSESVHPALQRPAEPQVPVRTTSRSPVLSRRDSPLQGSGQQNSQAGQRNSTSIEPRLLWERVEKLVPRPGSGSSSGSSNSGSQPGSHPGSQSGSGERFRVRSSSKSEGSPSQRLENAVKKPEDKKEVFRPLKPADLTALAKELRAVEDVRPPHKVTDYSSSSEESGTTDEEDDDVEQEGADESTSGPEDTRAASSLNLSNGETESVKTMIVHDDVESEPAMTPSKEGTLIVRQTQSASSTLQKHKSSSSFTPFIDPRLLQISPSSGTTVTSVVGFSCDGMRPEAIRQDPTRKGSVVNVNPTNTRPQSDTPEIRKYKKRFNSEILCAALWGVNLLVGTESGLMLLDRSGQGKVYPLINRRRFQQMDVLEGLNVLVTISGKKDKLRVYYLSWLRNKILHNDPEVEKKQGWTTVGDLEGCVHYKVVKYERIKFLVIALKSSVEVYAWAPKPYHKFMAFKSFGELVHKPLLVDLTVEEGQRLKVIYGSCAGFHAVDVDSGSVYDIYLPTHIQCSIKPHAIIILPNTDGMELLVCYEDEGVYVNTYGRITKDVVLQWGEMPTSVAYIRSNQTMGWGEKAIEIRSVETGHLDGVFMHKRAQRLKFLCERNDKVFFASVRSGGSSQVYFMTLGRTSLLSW

Row | SMILES | Kd
13 | C[C@@H]1CN(Cc2ccc(F)cc2)[C@@H](C)CN1C(=O)c1cc2c(C(=O)C(=O)N(C)C)cn(C)c2cc1Cl [TALMAPIMOD] | > 30 µM (inactive)
14 | CN1CCC(COc2cnc(-c3cccc(Cn4nc(-c5cccc(C#N)c5)ccc4=O)c3)nc2)CC1 [TEPOTINIB] | > 30 µM (inactive)
15 | O=c1sn(-c2cccc3ccccc23)c(=O)n1Cc1ccccc1 [TIDEGLUSIB] | > 30 µM (inactive)
16 | CC(=O)Nc1cccc(-n2c(=O)n(C3CC3)c(=O)c3c(Nc4ccc(I)cc4F)n(C)c(=O)c(C)c32)c1 [TRAMETINIB] | > 30 µM (inactive)

target: T2, Acyl-CoA dehydrogenase family member 10 (Homo sapiens, UniProt Q6JQN1)
T2 sequence (Q6JQN1 whole entry): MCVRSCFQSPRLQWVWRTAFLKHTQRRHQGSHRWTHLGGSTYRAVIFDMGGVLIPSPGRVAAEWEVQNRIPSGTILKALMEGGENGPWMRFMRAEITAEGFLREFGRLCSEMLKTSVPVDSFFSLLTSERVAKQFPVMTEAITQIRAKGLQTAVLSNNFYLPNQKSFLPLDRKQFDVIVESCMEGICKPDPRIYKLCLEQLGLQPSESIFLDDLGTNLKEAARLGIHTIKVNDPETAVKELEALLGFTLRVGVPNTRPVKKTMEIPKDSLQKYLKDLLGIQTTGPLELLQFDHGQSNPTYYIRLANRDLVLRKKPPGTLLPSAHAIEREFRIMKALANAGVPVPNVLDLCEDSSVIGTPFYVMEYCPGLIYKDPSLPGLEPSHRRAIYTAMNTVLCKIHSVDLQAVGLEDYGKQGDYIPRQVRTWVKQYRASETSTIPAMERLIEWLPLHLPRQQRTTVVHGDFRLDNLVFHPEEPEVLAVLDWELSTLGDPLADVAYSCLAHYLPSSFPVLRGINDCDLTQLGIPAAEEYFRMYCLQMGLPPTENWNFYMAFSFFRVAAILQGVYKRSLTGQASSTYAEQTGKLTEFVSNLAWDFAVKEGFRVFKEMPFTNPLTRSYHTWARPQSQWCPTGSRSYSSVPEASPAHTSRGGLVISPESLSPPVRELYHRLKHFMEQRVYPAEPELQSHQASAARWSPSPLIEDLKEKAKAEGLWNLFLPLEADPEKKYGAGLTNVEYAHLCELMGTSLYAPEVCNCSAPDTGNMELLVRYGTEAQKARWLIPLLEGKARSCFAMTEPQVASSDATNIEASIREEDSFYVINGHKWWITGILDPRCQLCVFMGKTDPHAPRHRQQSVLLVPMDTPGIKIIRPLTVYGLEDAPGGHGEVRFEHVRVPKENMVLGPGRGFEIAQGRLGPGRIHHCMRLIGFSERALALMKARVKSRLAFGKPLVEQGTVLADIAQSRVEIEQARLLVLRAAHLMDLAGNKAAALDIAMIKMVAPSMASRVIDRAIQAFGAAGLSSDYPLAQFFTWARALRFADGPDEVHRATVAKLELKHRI

Row | SMILES | Kd
17 | C[C@@H]1CN(Cc2ccc(F)cc2)[C@@H](C)CN1C(=O)c1cc2c(C(=O)C(=O)N(C)C)cn(C)c2cc1Cl [TALMAPIMOD] | > 30 µM (inactive)
18 | CN1CCC(COc2cnc(-c3cccc(Cn4nc(-c5cccc(C#N)c5)ccc4=O)c3)nc2)CC1 [TEPOTINIB] | > 30 µM (inactive)
19 | O=c1sn(-c2cccc3ccccc23)c(=O)n1Cc1ccccc1 [TIDEGLUSIB] | > 30 µM (inactive)
20 | CC(=O)Nc1cccc(-n2c(=O)n(C3CC3)c(=O)c3c(Nc4ccc(I)cc4F)n(C)c(=O)c(C)c32)c1 [TRAMETINIB] | > 30 µM (inactive)

target: Serine/threonine-protein kinase B-raf (Homo sapiens, UniProt P15056)
Sequence (P15056 whole entry): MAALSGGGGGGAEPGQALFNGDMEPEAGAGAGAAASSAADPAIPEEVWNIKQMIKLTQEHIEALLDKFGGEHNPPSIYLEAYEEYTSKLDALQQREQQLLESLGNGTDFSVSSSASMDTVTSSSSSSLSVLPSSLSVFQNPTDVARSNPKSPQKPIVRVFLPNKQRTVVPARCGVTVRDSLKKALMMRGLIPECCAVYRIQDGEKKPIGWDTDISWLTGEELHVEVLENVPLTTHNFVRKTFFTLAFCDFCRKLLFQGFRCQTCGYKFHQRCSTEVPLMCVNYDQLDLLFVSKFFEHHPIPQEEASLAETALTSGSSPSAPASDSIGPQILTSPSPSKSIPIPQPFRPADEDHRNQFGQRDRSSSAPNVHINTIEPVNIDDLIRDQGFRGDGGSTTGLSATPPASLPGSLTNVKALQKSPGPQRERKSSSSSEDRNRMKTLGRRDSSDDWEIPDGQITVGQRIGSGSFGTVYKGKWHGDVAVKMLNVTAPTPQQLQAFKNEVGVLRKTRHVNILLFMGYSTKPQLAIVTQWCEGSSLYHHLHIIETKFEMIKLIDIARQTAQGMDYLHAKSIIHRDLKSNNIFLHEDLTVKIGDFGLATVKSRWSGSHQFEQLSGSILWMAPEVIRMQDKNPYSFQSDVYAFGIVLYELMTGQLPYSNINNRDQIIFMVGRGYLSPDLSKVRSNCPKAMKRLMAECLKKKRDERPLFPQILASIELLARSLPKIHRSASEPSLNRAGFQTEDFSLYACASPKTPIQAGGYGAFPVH

Row | SMILES | Kd
21 | C[C@@H]1CN(Cc2ccc(F)cc2)[C@@H](C)CN1C(=O)c1cc2c(C(=O)C(=O)N(C)C)cn(C)c2cc1Cl [TALMAPIMOD] | > 30 µM (inactive)
22 | CN1CCC(COc2cnc(-c3cccc(Cn4nc(-c5cccc(C#N)c5)ccc4=O)c3)nc2)CC1 [TEPOTINIB] | > 30 µM (inactive)
23 | O=c1sn(-c2cccc3ccccc23)c(=O)n1Cc1ccccc1 [TIDEGLUSIB] | > 30 µM (inactive)
24 | CC(=O)Nc1cccc(-n2c(=O)n(C3CC3)c(=O)c3c(Nc4ccc(I)cc4F)n(C)c(=O)c(C)c32)c1 [TRAMETINIB] | > 30 µM (inactive)

target: LIM domain kinase 1 (Homo sapiens, UniProt P53667)
Sequence (P53667 whole entry, the tested form may be a part): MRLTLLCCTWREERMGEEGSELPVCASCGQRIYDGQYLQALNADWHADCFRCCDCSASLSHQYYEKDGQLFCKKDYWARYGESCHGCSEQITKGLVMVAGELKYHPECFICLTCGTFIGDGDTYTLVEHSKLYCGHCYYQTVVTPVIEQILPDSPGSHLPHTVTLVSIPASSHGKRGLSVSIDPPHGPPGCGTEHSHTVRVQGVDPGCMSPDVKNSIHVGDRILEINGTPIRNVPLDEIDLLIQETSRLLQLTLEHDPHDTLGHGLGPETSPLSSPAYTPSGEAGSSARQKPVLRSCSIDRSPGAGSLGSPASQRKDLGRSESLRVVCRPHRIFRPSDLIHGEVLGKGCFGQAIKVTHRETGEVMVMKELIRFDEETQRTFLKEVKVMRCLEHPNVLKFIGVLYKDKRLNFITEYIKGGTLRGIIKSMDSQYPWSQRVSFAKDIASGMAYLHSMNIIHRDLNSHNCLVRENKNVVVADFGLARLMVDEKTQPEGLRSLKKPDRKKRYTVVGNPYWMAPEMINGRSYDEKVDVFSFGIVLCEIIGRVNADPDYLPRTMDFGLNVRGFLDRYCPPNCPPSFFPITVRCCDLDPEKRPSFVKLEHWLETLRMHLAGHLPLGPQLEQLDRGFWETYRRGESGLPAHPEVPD

Row | SMILES | Kd
25 | C[C@@H]1CN(Cc2ccc(F)cc2)[C@@H](C)CN1C(=O)c1cc2c(C(=O)C(=O)N(C)C)cn(C)c2cc1Cl [TALMAPIMOD] | > 30 µM (inactive)
26 | CN1CCC(COc2cnc(-c3cccc(Cn4nc(-c5cccc(C#N)c5)ccc4=O)c3)nc2)CC1 [TEPOTINIB] | > 30 µM (inactive)
27 | O=c1sn(-c2cccc3ccccc23)c(=O)n1Cc1ccccc1 [TIDEGLUSIB] | > 30 µM (inactive)
28 | CC(=O)Nc1cccc(-n2c(=O)n(C3CC3)c(=O)c3c(Nc4ccc(I)cc4F)n(C)c(=O)c(C)c32)c1 [TRAMETINIB] | > 30 µM (inactive)

target: T3, Serine/threonine-protein kinase 4 (Homo sapiens, UniProt Q13043)
T3 sequence (Q13043 whole entry): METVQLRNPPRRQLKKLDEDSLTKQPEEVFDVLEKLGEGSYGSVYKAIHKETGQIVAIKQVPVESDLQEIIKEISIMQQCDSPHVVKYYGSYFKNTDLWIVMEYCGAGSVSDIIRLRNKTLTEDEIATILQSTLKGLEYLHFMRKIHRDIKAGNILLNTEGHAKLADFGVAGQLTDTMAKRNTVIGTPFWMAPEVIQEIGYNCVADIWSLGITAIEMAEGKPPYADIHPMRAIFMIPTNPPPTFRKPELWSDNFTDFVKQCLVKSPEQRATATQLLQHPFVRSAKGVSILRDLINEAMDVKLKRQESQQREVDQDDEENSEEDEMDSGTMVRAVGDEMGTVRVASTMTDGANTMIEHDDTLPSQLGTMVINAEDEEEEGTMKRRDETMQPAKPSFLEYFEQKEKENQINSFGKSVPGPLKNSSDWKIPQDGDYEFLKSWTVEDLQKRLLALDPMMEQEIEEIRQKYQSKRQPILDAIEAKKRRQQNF

Row | SMILES | Kd
29 | C[C@@H]1CN(Cc2ccc(F)cc2)[C@@H](C)CN1C(=O)c1cc2c(C(=O)C(=O)N(C)C)cn(C)c2cc1Cl [TALMAPIMOD] | > 30 µM (inactive)
30 | CN1CCC(COc2cnc(-c3cccc(Cn4nc(-c5cccc(C#N)c5)ccc4=O)c3)nc2)CC1 [TEPOTINIB] | > 30 µM (inactive)
31 | O=c1sn(-c2cccc3ccccc23)c(=O)n1Cc1ccccc1 [TIDEGLUSIB] | > 30 µM (inactive)
32 | CC(=O)Nc1cccc(-n2c(=O)n(C3CC3)c(=O)c3c(Nc4ccc(I)cc4F)n(C)c(=O)c(C)c32)c1 [TRAMETINIB] | > 30 µM (inactive)
